What all share (assay): relative viability (nuclei count vs DMSO), 5 days (fraction); higher = more cells survive
Compound in experiment [1]: C[As](C)SC[C@H](NC(=O)CC[C@H](N)C(=O)O)C(=O)NCC(=O)O [Darinaparsin] + N=C(N)NC(=N)NCCc1ccccc1 [Phenformin] (partner 250 µM)
The gist of the method:
(§1)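 Lung cancer cell lines were pin-tool dosed in 1536-well plates on the day after seeding, with either a lone drug or a fixed anchor-drug dose plus five library-drug doses (not always all listed) in √10 steps. Nuclei were counted on 4× images after 5 days. Relative viability is the ratio of treated-well to vehicle-well nuclei counts, with each value a median of duplicate plates.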

Compound in the experiment “QS11 + Vorinostat”: C1CC2=C(C1)C=C(C=C2)OC3=NC(=C4C(=N3)N(C=N4)CC5=CC=C(C=C5)C6=CC=CC=C6)N[C@@H](CC7=CC=CC=C7)CO [QS11] + O=C(CCCCCCC(=O)Nc1ccccc1)NO [Vorinostat] (partner 1 µM)
The gist of the method: as §1

Compound in the experiment “AZ628 + Linsitinib”: CC1=C(C=C(C=C1)NC(=O)C2=CC(=CC=C2)C(C)(C)C#N)NC3=CC4=C(C=C3)N=CN(C4=O)C [AZ628] + C[C@]1(O)C[C@@H](c2nc(-c3ccc4ccc(-c5ccccc5)nc4c3)c3c(N)nccn32)C1 [Linsitinib] (partner 1 µM)
The gist of the method:
as §1

Compound in the experiment “QS11 + Tozasertib”: C1CC2=C(C1)C=C(C=C2)OC3=NC(=C4C(=N3)N(C=N4)CC5=CC=C(C=C5)C6=CC=CC=C6)N[C@@H](CC7=CC=CC=C7)CO [QS11] + Cc1cc(Nc2cc(N3CCN(C)CC3)nc(Sc3ccc(NC(=O)C4CC4)cc3)n2)n[nH]1 [Tozasertib] (partner 0.1 µM)
The gist of the method: as §1

Turning to H3255, the relative viability came out at 0.381 in experiment [1] (first compound 0.08 µM); 0.384 in experiment [1] (first compound 0.8 µM); 0.363 in experiment [1] (first compound 2.53 µM); 0.332 in experiment [1] (first compound 8 µM); 0.763 in the experiment with QS11 + Vorinostat (first compound 0.08 µM); 0.947 with QS11 + Vorinostat (first compound 0.253 µM). The relative viability in the experiment with QS11 + Vorinostat (first compound 2.53 µM) was 0.758; in the experiment with QS11 + Vorinostat (first compound 8 µM) it was 0.861; in the experiment with AZ628 + Linsitinib (first compound 0.08 µM) it was 0.965; with AZ628 + Linsitinib (first compound 0.253 µM) it was 0.859; in the experiment with AZ628 + Linsitinib (first compound 0.8 µM) it was 0.965; in the experiment with AZ628 + Linsitinib (first compound 2.53 µM) it was 0.968. In addition, the relative viability with AZ628 + Linsitinib (first compound 8 µM) stood at 0.737; in the experiment with QS11 + Tozasertib (first compound 0.08 µM) it was 0.639; with QS11 + Tozasertib (first compound 0.253 µM), 0.853; with QS11 + Tozasertib (first compound 2.53 µM), 0.651; in the experiment with QS11 + Tozasertib (first compound 8 µM) it was 0.589.

As for LOU-NH91, the relative viability in experiment [1] (first compound 0.08 µM) was found to be 0.731; in experiment [1] (first compound 0.8 µM), 0.683; in experiment [1] (first compound 2.53 µM), 0.692; in experiment [1] (first compound 8 µM), 0.705; with QS11 + Vorinostat (first compound 0.08 µM), 0.896; in the experiment with QS11 + Vorinostat (first compound 0.253 µM), 0.858. The relative viability turned out to be 0.871 with QS11 + Vorinostat (first compound 0.8 µM); 0.936 with QS11 + Vorinostat (first compound 2.53 µM); 0.916 in the experiment with QS11 + Vorinostat (first compound 8 µM); 0.962 with AZ628 + Linsitinib (first compound 0.08 µM); 1 in the experiment with AZ628 + Linsitinib (first compound 0.253 µM); 1.07 with AZ628 + Linsitinib (first compound 0.8 µM). For the same cell line, the relative viability with AZ628 + Linsitinib (first compound 2.53 µM) is 0.964; with AZ628 + Linsitinib (first compound 8 µM) it was 0.66; with QS11 + Tozasertib (first compound 0.08 µM) it was 0.67; in the experiment with QS11 + Tozasertib (first compound 0.253 µM) it was 0.647; in the experiment with QS11 + Tozasertib (first compound 0.8 µM), 0.629; in the experiment with QS11 + Tozasertib (first compound 2.53 µM), 0.597. Moreover, the relative viability in the experiment with QS11 + Tozasertib (first compound 8 µM) was 0.572.

For the cell line NCI-H2126, the relative viability was determined as 0.521 in experiment [1] (first compound 0.08 µM); 0.511 in experiment [1] (first compound 0.8 µM); 0.524 in experiment [1] (first compound 2.53 µM); 0.556 in experiment [1] (first compound 8 µM); 0.801 with QS11 + Vorinostat (first compound 0.08 µM); 0.777 in the experiment with QS11 + Vorinostat (first compound 0.253 µM). Further, the relative viability was found to be 0.717 with QS11 + Vorinostat (first compound 0.8 µM); 0.732 with QS11 + Vorinostat (first compound 2.53 µM); 0.661 with QS11 + Vorinostat (first compound 8 µM); 0.762 in the experiment with AZ628 + Linsitinib (first compound 0.08 µM); 0.746 with AZ628 + Linsitinib (first compound 0.253 µM); 0.776 with AZ628 + Linsitinib (first compound 0.8 µM). Also, the relative viability in the experiment with AZ628 + Linsitinib (first compound 2.53 µM) is 0.721; in the experiment with AZ628 + Linsitinib (first compound 8 µM), 0.664; with QS11 + Tozasertib (first compound 0.08 µM), 0.803; with QS11 + Tozasertib (first compound 0.253 µM), 0.849; with QS11 + Tozasertib (first compound 0.8 µM), 0.817; in the experiment with QS11 + Tozasertib (first compound 2.53 µM) it was 0.886. In addition, the relative viability with QS11 + Tozasertib (first compound 8 µM) was found to be 0.795.

With PC-14, the relative viability in experiment [1] (first compound 0.08 µM) is 0.653; in experiment [1] (first compound 0.8 µM), 0.55; in experiment [1] (first compound 2.53 µM), 0.716; in experiment [1] (first compound 8 µM), 0.698; with QS11 + Vorinostat (first compound 0.253 µM), 0.839; in the experiment with QS11 + Vorinostat (first compound 0.8 µM), 0.695. Also, the relative viability in the experiment with QS11 + Vorinostat (first compound 2.53 µM) stood at 0.808; in the experiment with QS11 + Vorinostat (first compound 8 µM) it was 0.69; with AZ628 + Linsitinib (first compound 0.08 µM), 0.946; with AZ628 + Linsitinib (first compound 0.253 µM), 0.862; with AZ628 + Linsitinib (first compound 0.8 µM), 0.946; in the experiment with AZ628 + Linsitinib (first compound 2.53 µM), 0.981. Also, the relative viability with AZ628 + Linsitinib (first compound 8 µM) worked out at 0.703; with QS11 + Tozasertib (first compound 0.08 µM) it was 0.552; with QS11 + Tozasertib (first compound 0.253 µM) it was 0.575; with QS11 + Tozasertib (first compound 0.8 µM) it was 0.487; with QS11 + Tozasertib (first compound 2.53 µM), 0.652; with QS11 + Tozasertib (first compound 8 µM) it was 0.602.

With EMC-BAC-2, the relative viability came to 0.559 in experiment [1] (first compound 0.08 µM); 0.505 in experiment [1] (first compound 0.8 µM); 0.514 in experiment [1] (first compound 2.53 µM); 0.559 in experiment [1] (first compound 8 µM); 0.492 with QS11 + Vorinostat (first compound 0.08 µM); 0.434 in the experiment with QS11 + Vorinostat (first compound 0.253 µM). Further, the relative viability worked out at 0.385 with QS11 + Vorinostat (first compound 0.8 µM); 0.334 with QS11 + Vorinostat (first compound 2.53 µM); 0.325 in the experiment with QS11 + Vorinostat (first compound 8 µM); 0.77 with AZ628 + Linsitinib (first compound 0.08 µM); 0.723 with AZ628 + Linsitinib (first compound 0.253 µM); 0.782 in the experiment with AZ628 + Linsitinib (first compound 0.8 µM). Further, the relative viability amounted to 0.744 in the experiment with AZ628 + Linsitinib (first compound 2.53 µM); 0.762 in the experiment with AZ628 + Linsitinib (first compound 8 µM); 0.297 with QS11 + Tozasertib (first compound 0.08 µM); 0.292 with QS11 + Tozasertib (first compound 0.253 µM); 0.279 in the experiment with QS11 + Tozasertib (first compound 0.8 µM); 0.274 in the experiment with QS11 + Tozasertib (first compound 2.53 µM). In addition, in the experiment with QS11 + Tozasertib (first compound 8 µM), the relative viability came to 0.238.

In the case of HCC-78, the relative viability in experiment [1] (first compound 0.08 µM) is 0.728; in experiment [1] (first compound 0.8 µM), 0.772; in experiment [1] (first compound 2.53 µM), 0.819; in experiment [1] (first compound 8 µM), 0.745; with QS11 + Vorinostat (first compound 0.08 µM) it was 0.4; with QS11 + Vorinostat (first compound 0.253 µM) it was 0.48. Also, the relative viability with QS11 + Vorinostat (first compound 0.8 µM) turned out to be 0.518; with QS11 + Vorinostat (first compound 2.53 µM), 0.46; in the experiment with QS11 + Vorinostat (first compound 8 µM), 0.444; with AZ628 + Linsitinib (first compound 0.08 µM) it was 0.704; in the experiment with AZ628 + Linsitinib (first compound 0.253 µM), 0.524; with AZ628 + Linsitinib (first compound 0.8 µM) it was 0.479. Moreover, the relative viability in the experiment with AZ628 + Linsitinib (first compound 2.53 µM) was 0.499; in the experiment with AZ628 + Linsitinib (first compound 8 µM) it was 0.518; with QS11 + Tozasertib (first compound 0.08 µM), 0.404; with QS11 + Tozasertib (first compound 0.253 µM), 0.57; in the experiment with QS11 + Tozasertib (first compound 0.8 µM), 0.401; with QS11 + Tozasertib (first compound 2.53 µM), 0.462. For the same cell line, in the experiment with QS11 + Tozasertib (first compound 8 µM), the relative viability was 0.449.

As for SK-LU-1, the relative viability came to 0.777 in experiment [1] (first compound 0.08 µM); 0.417 in experiment [1] (first compound 0.8 µM); 0.384 in experiment [1] (first compound 2.53 µM); 0.743 in experiment [1] (first compound 8 µM); 0.786 in the experiment with QS11 + Vorinostat (first compound 0.08 µM); 0.849 with QS11 + Vorinostat (first compound 0.253 µM). Moreover, the relative viability was 0.604 in the experiment with QS11 + Vorinostat (first compound 0.8 µM); 0.572 with QS11 + Vorinostat (first compound 2.53 µM); 0.614 with QS11 + Vorinostat (first compound 8 µM); 0.728 in the experiment with AZ628 + Linsitinib (first compound 0.08 µM); 1 in the experiment with AZ628 + Linsitinib (first compound 0.253 µM); 0.907 with AZ628 + Linsitinib (first compound 0.8 µM). In addition, the relative viability in the experiment with AZ628 + Linsitinib (first compound 2.53 µM) is 1.07; with AZ628 + Linsitinib (first compound 8 µM), 0.901; with QS11 + Tozasertib (first compound 0.08 µM) it was 0.293; in the experiment with QS11 + Tozasertib (first compound 0.253 µM) it was 0.323; in the experiment with QS11 + Tozasertib (first compound 0.8 µM), 0.352; with QS11 + Tozasertib (first compound 2.53 µM) it was 0.312. Moreover, the relative viability with QS11 + Tozasertib (first compound 8 µM) is 0.278.

Consider ABC-1, for which the relative viability in experiment [1] (first compound 0.08 µM) was 0.256; in experiment [1] (first compound 0.8 µM) it was 0.21; in experiment [1] (first compound 2.53 µM), 0.234; in experiment [1] (first compound 8 µM), 0.264; with QS11 + Vorinostat (first compound 0.08 µM), 0.886; with QS11 + Vorinostat (first compound 0.253 µM), 0.834. Further, the relative viability with QS11 + Vorinostat (first compound 0.8 µM) amounted to 1.02; with QS11 + Vorinostat (first compound 2.53 µM), 0.931; in the experiment with QS11 + Vorinostat (first compound 8 µM), 1.11; in the experiment with AZ628 + Linsitinib (first compound 0.08 µM), 0.857; with AZ628 + Linsitinib (first compound 0.253 µM), 0.81; with AZ628 + Linsitinib (first compound 0.8 µM), 0.854. Further, the relative viability in the experiment with AZ628 + Linsitinib (first compound 2.53 µM) turned out to be 0.719; with AZ628 + Linsitinib (first compound 8 µM), 0.799; with QS11 + Tozasertib (first compound 0.08 µM) it was 0.191; in the experiment with QS11 + Tozasertib (first compound 0.253 µM), 0.157; with QS11 + Tozasertib (first compound 0.8 µM), 0.174; with QS11 + Tozasertib (first compound 2.53 µM), 0.168. The relative viability with QS11 + Tozasertib (first compound 8 µM) is 0.183.

The record behind these values is the supplement of paper PMC10307832.
